One data set has as its target T1, Human NK1 Receptor (Homo sapiens, UniProt P25103).
T1 construct: endogenous in cells; host or cells: Human lymphoma IM9 cells (whole cells)
The data set can be described thus: In Vitro Human NK1 Receptor Binding Assay ([125I]Bolton-Hunter substance P displacement, IM9 cells). An outline of the steps:
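Radioligand displacement on whole IM9 human lymphoma cells (2.5×10^6 cells/mL) using [125I]Bolton-Hunter substance P (0.05-0.1 nM), 50 min at 21° C in Tris pH 7.4/MnCl2 buffer with protease inhibitors. Non-specific binding defined by […] [Sar9, Met(O2)11] substance P. Filtration, gamma counting, iterative curve fitting.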

[1] abbreviates: Human lymphoma IM9 cells, [125I]Bolton-Hunter substance P (0.05-0.1 nM), 50 min at 21° C., Table 1, read-out: NK1 binding IC50.
Setting [2] is: Table 5, [125I]Bolton-Hunter substance P displacement, human IM9 cells, read-out: IC50 (nM) hNK1.
Where [3] appears, read: human NK1 receptor, IM9 cells, [125I]Bolton-Hunter substance P, read-out: IC50 (nM) hNK1.
Where [4] appears, read: Table 4, [125I]Bolton-Hunter substance P displacement, human IM9 cells, read-out: IC50 (nM) hNK1.

Like-named read-outs stand apart in the source and are kept apart here.

T1 sequence (P25103 whole entry): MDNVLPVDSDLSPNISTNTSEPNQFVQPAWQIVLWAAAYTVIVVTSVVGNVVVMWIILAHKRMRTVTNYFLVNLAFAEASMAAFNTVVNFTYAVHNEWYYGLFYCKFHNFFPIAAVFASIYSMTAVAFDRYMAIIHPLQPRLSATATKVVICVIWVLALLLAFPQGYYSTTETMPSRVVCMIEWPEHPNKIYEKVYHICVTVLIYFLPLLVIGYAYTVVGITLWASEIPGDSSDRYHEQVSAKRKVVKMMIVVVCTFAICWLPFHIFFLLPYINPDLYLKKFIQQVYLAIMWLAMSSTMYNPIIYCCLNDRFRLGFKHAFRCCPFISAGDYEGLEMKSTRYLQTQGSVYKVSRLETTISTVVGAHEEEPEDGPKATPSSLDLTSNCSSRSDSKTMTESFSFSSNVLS

With `CC(C)(NC(=O)[C@@](C)(Cc1c[nH]c2ccccc12)NCc1cc2ccccc2o1)c1ccccc1` [Example 1, 2-[(Benzofuran-2-ylmethyl)-amino]-3-(1H-indol-3-yl)-2-methyl-N-(1-methyl-1-phenyl-ethyl)-propionamide, (R)], the melting point was in the range of 57 to 62 °C. Besides, the concentration for half-maximal inhibition (IC50) at Human NK1 Receptor (setting [1]) is 591 nM.
As for `C[C@H](NC(=O)[C@@](C)(Cc1c[nH]c2ccccc12)NCc1coc2ccccc12)c1ccccc1` (relative stereo) [Example 19, 2-[(Benzofuran-3-ylmethyl)-amino]-3-(1H-indol-3-yl)-2-methyl-N-(1-phenyl-ethyl)-propionamide, [R-(R*,S*)]], the melting point was in the range of 104 to 106 °C. Moreover, the IC50 on Human NK1 Receptor (setting [1]) is 58 nM.
The like results for `C[C@H](NC(=O)[C@@H](Cc1c[nH]c2ccccc12)NCc1nc2ccccc2[nH]1)c1ccccc1` (relative stereo) [Example 9, 2-[(1H-Benzoimidazol-2-ylmethyl)-amino]-3-(1H-indol-3-yl)-N-(1-phenyl-ethyl)-propionamide, [R-(R*,S*)]] were, in that order, 148 to 152.5 °C and 112 nM.
The like results for `C[C@H](NC(=O)[C@@](C)(Cc1c[nH]c2ccccc12)NCc1cc2ccccc2o1)c1ccncc1` (relative stereo) [Example 3, 2-[(Benzofuran-2-ylmethyl)-amino]-3-(1H-indol-3-yl)-2-methyl-N-(1-pyridin-4-yl-ethyl)-propionamide, [R(R*,S*)]] were, in that order, 66 to 69 °C and 6 nM.
As for `C[C@H](NC(=O)[C@@](C)(Cc1c[nH]c2ccccc12)NCc1ccc[nH]1)c1ccccc1` (relative stereo) [Example 20, 3-(1H-Indol-3-yl)-2-methyl-N-(1-phenyl-ethyl)-2-[(1H-pyrrol-2-ylmethyl)-amino]-propionamide, (R-(R*,S*)]], the melting point lay in the range of 123 to 133 °C. Besides, the IC50 on Human NK1 Receptor (setting [1]) was determined as 815 nM.
The like results for `C[C@H](NC(=O)[C@@](C)(Cc1c[nH]c2ccccc12)NCc1cc2ccccc2o1)c1ccccc1` (relative stereo) [Example 18, 2-[(Benzofuran-2-ylmethyl)-amino]-3-(1H-indol-3-yl)-2-methyl-N-(1-phenyl-ethyl)-propionamide, [R-(R*,S*)]] were, in that order, 118 to 121 °C and 4.4 nM.
`CC(NC(=O)[C@@](C)(Cc1c[nH]c2ccccc12)NCc1cc2ccccc2o1)c1ccn(C)c1` (stereo in doubt) [Example 2, 2-[(Benzofuran-2-ylmethyl)-amino]-3-(1H-indol-3-yl)-2-methyl-N-[1-(1-methyl-1H-pyrrol-3-yl)-ethyl]-propionamide, [R-(R*,R*)] and [R-(R*,S*)]] registered a melting point of 53 to 57 °C. Moreover, at Human NK1 Receptor (setting [1]), the IC50 is 23 nM.
The like results for `C[C@H](NC(=O)[C@@H](Cc1c[nH]c2ccccc12)NCCc1cc2ccccc2o1)c1ccccc1` (relative stereo) [Example 7, 2-(2-Benzofuran-2-yl-ethylamino)-3-(1H-indol-3-yl)-N-(1-phenyl-ethyl)-propionamide, [R-(R*,S*)]] were, in that order, 105 to 107 °C and 3.3 nM.
Consider `C[C@H](NC(=O)[C@@](C)(Cc1c[nH]c2ccccc12)NC(=O)NCc1cc2ccccc2o1)c1ccccc1` (relative stereo) [Example 22, 2-(3-Benzofuran-2-ylmethyl-ureido)-3-(1H-indol-3-yl)-2-methyl-N-(1-phenyl-ethyl)-propionamide, [R-(R*,S*)]], for which the melting point was in the range of 176 to 178 °C. In addition, the IC50 at Human NK1 Receptor (setting [1]) amounted to 2.9 nM.
The like results for `C[C@H](NC(=O)[C@@H](Cc1c[nH]c2ccccc12)NCc1cnc2ccccc2c1)c1ccccc1` (relative stereo) [Example 11, 3-(1H-Indol-3-yl)-N-(1-phenyl-ethyl)-2-[(quinolin-3-ylmethyl)-amino]-propionamide, [R-(R*,S*)]] were, in that order, 161 to 163 °C and 46 nM.
The like results for `C[C@](Cc1c[nH]c2ccccc12)(NCc1cc2ccccc2o1)C(=O)NCc1cccc(O)c1` [Example 5, 2-[(Benzofuran-2-ylmethyl)-amino]-N-(3-hydroxy-benzyl)-3-(1H-indol-3-yl)-2-methyl-propionamide, R] were, in that order, 60 to 69 °C and 295 nM.
The like results for `C[C@H](NC(=O)[C@@H](Cc1c[nH]c2ccccc12)NCc1cc2ccccc2s1)c1ccccc1` [Example 10, 2-[(Benzo[b]thiophen-2-ylmethyl)-amino]-3-(1H-indol-3-yl)-N-(1-phenyl-ethyl)-propionamide] were, in that order, 102 to 108 °C and 51 nM.
Consider `CN(C)C[C@H](NC(=O)[C@@](C)(Cc1c[nH]c2ccccc12)NCc1cc2ccccc2o1)c1ccccc1` [Example 4, 2-[(Benzofuran-2-ylmethyl)-amino]-N-(2-dimethylamino-1-phenyl-ethyl)-3-(1H-indol-3-yl)-2-methyl-propionamide, (R,R)], for which the melting point was in the range of 130 to 134 °C. The IC50 on Human NK1 Receptor (setting [1]) worked out at 1210 nM.
Turning to `CC(NC(=O)C(Cc1c[nH]c2ccccc12)NCc1cc(C(F)(F)F)cc(C(F)(F)F)c1)c1ccccc1` (centres unmarked) [compound 398], at Human NK1 Receptor (setting [2]), the IC50 was more than 10000 nM.
As for `CC(CCc1ccccc1)NC(=O)C(Cc1c[nH]c2ccccc12)NCc1cc2ccccc2o1` (centres unmarked) [Example 307, 2-[(Benzofuran-2-ylmethyl)-amino]-3-(1H-indol-3-yl)-N-(1-methyl-3-phenyl-propyl)-propionamide], the IC50 at Human NK1 Receptor (Human lymphoma IM9 cells, [125I]Bolton-Hunter substance P, Table 3, array-synthesis products, read-out: IC50 (nM) hNK1) is 392 nM.
With `CC(C)NC(=O)C(C)(Cc1c[nH]c2ccccc12)NCc1cc2ccccc2o1` (centres unmarked) [compound 92, 2-[(Benzofuran-2-ylmethyl)-amino]-3-(1H-indol-3-yl)-N-isopropyl-2-methyl-propionamide], at Human NK1 Receptor (setting [3]), the IC50 stood at 2290 nM.
On to `CC(Cc1c[nH]c2ccccc12)(NCc1cc2ccccc2o1)C(=O)NC1CC1c1ccccc1` (centres unmarked) [compound 107, 2-[(Benzofuran-2-ylmethyl)-amino]-3-(1H-indol-3-yl)-2-methyl-N-(2-phenyl-cyclopropyl)-propionamide], for which the IC50 on Human NK1 Receptor (setting [3]) was determined as 4150 nM.
Still for that read-out and setting: as for `CC(NC(=O)C(C)(Cc1c[nH]c2ccccc12)NCc1cc2ccccc2o1)c1ccccn1` (centres unmarked) [compound 69, 2-[(Benzofuran-2-ylmethyl)-amino]-3-(1H-indol-3-yl)-2-methyl-N-(1-pyridin-2-yl-ethyl)-propionamide], the figure is 12 nM.
With `CC(NC(=O)C(C)(Cc1c[nH]c2ccccc12)NCc1ccsc1)c1ccccc1` (centres unmarked) [compound 358, 3-(1H-Indol-3-yl)-2-methyl-N-(1-phenyl-ethyl)-2-[(thiophen-3-ylmethyl)-amino]-propionamide], the IC50 at Human NK1 Receptor (setting [4]) came out at 598 nM.
As to `CC(NC(=O)C(Cc1c[nH]c2ccccc12)NCc1ccc(OCc2ccccc2)cc1)c1ccccc1` (centres unmarked) [compound 379], the IC50 at Human NK1 Receptor (setting [2]) was 587 nM.
For the compound “2-(3-Benzo[1,3]dioxol-5-yl-allylamino)-3-(1H-indol-3-yl)-2-methyl-N-(1-phenyl-ethyl)-propionamide [compound 339]”, the IC50 at Human NK1 Receptor (setting [4]) came to 343 nM.
As to `CC(NC(=O)C(C)(Cc1c[nH]c2ccccc12)NCc1cc2ccccc2o1)c1cccc(N(C)C)c1` (centres unmarked) [compound 40, 2-[(Benzofuran-2-ylmethyl)-amino)-N-[1-(3-dimethylamino-phenyl)-ethyl]-3-(1H-indol-3-yl)-2-methyl-propionamide], the IC50 on Human NK1 Receptor (setting [3]) came out at 1060 nM.

Broadly, the IC50 is the concentration needed to halve the response being measured. The term melting point denotes the temperature, or range, at which the solid turns liquid.

(Values after US6472418B1, “Non-peptide NK1 receptors antagonists” (Warner-Lambert Company, priority 1998, dated 2002).)
